Source: ChEMBL document CHEMBL1155694, “Sesquiterpene alkaloids from Tripterygium hypoglaucum and Tripterygium wilfordii: a new class of potent anti-HIV agents” (J Nat Prod, 2000)
≈ marks a conversion by molar mass, not a printed value. Calls of active or inactive are those of the source. The calls are words filed in the database; no cut-off is given here.

Assays:
[1] = tested on: H9; experiment: Cytotoxicity against human H9 cells; format: cell-based
[2] = tested on: Human immunodeficiency virus 1; experiment: Antiviral activity against HIV1 in human H9 cells assessed as inhibition of viral replication; format: functional, organism-based; conditions: for EC50: Human immunodeficiency virus 1, H9
[3] = Therapeutic index, ratio of IC50 for human H9 cells to EC50 for HIV1; format: cell-based; conditions: read-out: Ratio IC50/EC50

Compound: CC(=O)O[C@@H]1[C@@H]2[C@@H](OC(C)=O)[C@@]34O[C@@]2(C)COC(=O)c2cnccc2C(C)C(C)(O)C(=O)O[C@@H]([C@H](OC(C)=O)[C@H](OC(C)=O)[C@@]3(COC(=O)c2ccco2)[C@@H]1OC(C)=O)[C@]4(C)O (some centres undefined) [HYPOGLAUNINE A]
- IC50 [1]: > 100 µg/mL
- EC50 [2]: 0.13 µg/mL (≈ 0.149 µM)
- selectivity ratio [3]: > 769

Compound: CC(=O)OC[C@]12[C@H](OC(C)=O)[C@H](OC(C)=O)[C@@H]3[C@@H](OC(C)=O)[C@@]14O[C@@]3(C)COC(=O)c1cccnc1CCC(C)(O)C(=O)O[C@@H]([C@H](OC(=O)c1ccco1)[C@@H]2OC(C)=O)[C@]4(C)O (some centres undefined) [WILFORTRINE]
- IC50 [1]: > 100 µg/mL
- EC50 [2]: < 0.1 µg/mL
- selectivity ratio [3]: > 1000

Compound: COC(=O)C[C@@H]1C(=O)CCC(C)C(=O)O[C@@H]2[C@@H]3[C@@H](OC(C)=O)[C@@]45O[C@@]3(C)COC(=O)c3cccnc3C(C)C(C)C(=O)O[C@@H]([C@H](OC(C)=O)[C@H](OC(C)=O)[C@@]4(COC1=O)[C@@H]2OC(C)=O)[C@]5(C)O (some centres undefined) [TRIPTONINE A]
- IC50 [1]: > 100 µg/mL
- EC50 [2]: 2.54 µg/mL (≈ 2.69 µM)
- selectivity ratio [3]: > 39.4

Compound: CC(=O)OC[C@]12[C@H](OC(C)=O)C(=O)[C@@H]3[C@@H](OC(C)=O)[C@@]14O[C@@]3(C)COC(=O)c1cccnc1C(C)C(C)C(=O)O[C@@H]([C@H](OC(C)=O)[C@@H]2OC(C)=O)[C@]4(C)O (some centres undefined) [EVONINE]
- IC50 [1]: 21.2 µg/mL (≈ 27.8 µM)
- EC50 [2]: 0.503 µg/mL (≈ 0.66 µM)
- selectivity ratio [3]: 42.1

Compound: CC(=O)OC[C@]12[C@H](OC(C)=O)[C@H](OC(C)=O)[C@@H]3[C@@H](OC(=O)c4ccco4)[C@@]14O[C@@]3(C)COC(=O)c1cccnc1C(C)C(C)C(=O)O[C@@H]([C@H](OC(C)=O)[C@@H]2OC(C)=O)[C@]4(C)O (some centres undefined) [HYPONINE A]
- IC50 [1]: 27.7 µg/mL (≈ 32.3 µM)
- EC50 [2]: 1 µg/mL (≈ 1.17 µM)
- selectivity ratio [3]: 27.7

Compound: CC(=O)OC[C@]12[C@H](OC(C)=O)[C@H](OC(C)=O)[C@@H]3[C@@H](OC(C)=O)[C@@]14O[C@@]3(C)COC(=O)c1cccnc1C(C)C(C)C(=O)O[C@@H]([C@H](OC(C)=O)[C@@H]2OC(C)=O)[C@]4(C)O (some centres undefined) [EUONYMINE]
- IC50 [1]: 22.8 µg/mL (≈ 28.3 µM)
- EC50 [2]: 0.203 µg/mL (≈ 0.252 µM)
- selectivity ratio [3]: 113

Compound: CC(=O)OC[C@]12[C@H](OC(C)=O)[C@H](OC(C)=O)[C@@H]3[C@@H](OC(C)=O)[C@@]14O[C@@]3(C)COC(=O)c1cccnc1CCC(C)(O)C(=O)O[C@@H]([C@H](OC(=O)c1ccccc1)[C@@H]2OC(C)=O)[C@]4(C)O (some centres undefined) [WILFORDINE]
- IC50 [1]: 20 µg/mL (≈ 22.6 µM)
- EC50 [2]: < 0.1 µg/mL
- selectivity ratio [3]: > 220

Compound: CC(=O)OC[C@]12[C@H](OC(C)=O)[C@H](OC(C)=O)[C@@H]3[C@@H](OC(=O)c4ccccc4)[C@@]14O[C@@]3(C)COC(=O)c1cccnc1C(C)C(C)C(=O)O[C@@H]([C@H](OC(=O)c1cccnc1)[C@@H]2OC(C)=O)[C@]4(C)O (some centres undefined) [HYPONINE D]
- IC50 [1]: 20.2 µg/mL (≈ 21.7 µM)
- Activity [2]: inactive

Compound: Cc1cn([C@H]2C[C@H](N=[N+]=[N-])[C@@H](CO)O2)c(=O)[nH]c1=O [ZIDOVUDINE]
- EC50 [2]: 0.012 µg/mL (≈ 0.0449 µM)

Compound: CC(=O)OC[C@]12[C@H](OC(C)=O)[C@H](OC(C)=O)[C@@H]3[C@@H](OC(=O)c4ccccc4)[C@@]14O[C@@]3(C)COC(=O)c1cccnc1C(C)C(C)C(=O)O[C@@H]([C@H](OC(C)=O)[C@@H]2OC(C)=O)[C@]4(C)O (some centres undefined)
- IC50 [1]: 56.8 µg/mL (≈ 65.4 µM)
- EC50 [2]: 0.9 µg/mL (≈ 1.04 µM)
- selectivity ratio [3]: 63.4

Compound: CC(=O)OC[C@]12[C@H](OC(C)=O)[C@H](OC(C)=O)[C@@H]3[C@@H](OC(C)=O)[C@@]14O[C@@]3(C)COC(=O)c1cnccc1C(C)C(C)(O)C(=O)O[C@@H]([C@H](OC(=O)c1ccco1)[C@@H]2OC(C)=O)[C@]4(C)O (some centres undefined) [HYPOGLAUNINE B]
- IC50 [1]: > 100 µg/mL
- EC50 [2]: 0.1 µg/mL (≈ 0.114 µM)
- selectivity ratio [3]: > 1000

Compound: CC(=O)OC[C@]12[C@H](OC(C)=O)[C@H](OC(C)=O)[C@@H]3[C@@H](OC(C)=O)[C@@]14O[C@@]3(C)COC(=O)c1cccnc1C(C)C(C)C(=O)O[C@@H]([C@H](OC(=O)c1ccco1)[C@@H]2OC(C)=O)[C@]4(C)O (some centres undefined) [HYPONINE F]
- IC50 [1]: > 100 µg/mL
- EC50 [2]: 35.2 µg/mL (≈ 41 µM)
- selectivity ratio [3]: > 2.84

Compound: COC(=O)C[C@@H]1C(=O)CC[C@H](C)C(=O)O[C@@H]2[C@@H]3[C@@H](OC(C)=O)[C@@]45O[C@@]3(C)COC(=O)c3cnccc3[C@@H](C)[C@@](C)(O)C(=O)O[C@@H]([C@H](OC(C)=O)[C@H](OC(C)=O)[C@@]4(COC1=O)[C@@H]2OC(C)=O)[C@]5(C)O
- IC50 [1]: > 100 µg/mL
- EC50 [2]: < 0.1 µg/mL
- selectivity ratio [3]: > 1000

Compound: CC(=O)OC[C@]12[C@H](OC(C)=O)[C@H](OC(=O)c3cccnc3)[C@@H]3[C@@H](OC(=O)c4ccco4)[C@@]14O[C@@]3(C)COC(=O)c1cccnc1C(C)C(C)C(=O)O[C@@H]([C@H](OC(C)=O)[C@@H]2OC(C)=O)[C@]4(C)O (some centres undefined) [HYPONINE E]
- IC50 [1]: 1.95 µg/mL (≈ 2.12 µM)
- EC50 [2]: 0.17 µg/mL (≈ 0.185 µM)
- selectivity ratio [3]: 11.3

Compound: CC(=O)OC[C@]12[C@H](OC(C)=O)[C@H](OC(C)=O)[C@@H]3[C@@H](OC(C)=O)[C@@]14O[C@@]3(C)COC(=O)c1cccnc1CCC(C)C(=O)O[C@@H]([C@H](OC(=O)c1ccco1)[C@@H]2OC(C)=O)[C@]4(C)O (some centres undefined) [WILFORGINE]
- IC50 [1]: > 100 µg/mL
- Activity [2]: inactive

Compound: CC(=O)OC[C@]12[C@H](OC(C)=O)[C@H](OC(C)=O)[C@@H]3[C@@H](OC(C)=O)[C@@]14O[C@@]3(C)COC(=O)c1cccnc1CCC(C)C(=O)O[C@@H]([C@H](OC(=O)c1ccccc1)[C@@H]2OC(C)=O)[C@]4(C)O (some centres undefined) [WILFORINE]
- IC50 [1]: > 100 µg/mL
- Activity [2]: inactive

Compound: CC(=O)O[C@@H]1[C@H](OC(C)=O)[C@@]2(COC(=O)c3ccco3)[C@H](OC(C)=O)C(=O)[C@@H]3[C@@H](OC(C)=O)[C@@]24O[C@@]3(C)COC(=O)c2cccnc2C(C)C(C)C(=O)O[C@@H]1[C@]4(C)O (some centres undefined) [HYPONINE B]
- IC50 [1]: > 100 µg/mL
- EC50 [2]: 0.1 µg/mL (≈ 0.123 µM)
- selectivity ratio [3]: > 1000

Compound: CC(=O)OC[C@]12[C@H](OC(C)=O)[C@H](OC(C)=O)[C@@H]3[C@@H](O)[C@@]14O[C@@]3(C)COC(=O)c1cccnc1C(C)C(C)C(=O)O[C@@H]([C@H](OC(C)=O)[C@@H]2OC(C)=O)[C@]4(C)O (some centres undefined) [NEOEUONYMINE]
- IC50 [1]: > 100 µg/mL
- EC50 [2]: 0.884 µg/mL (≈ 1.16 µM)
- selectivity ratio [3]: > 113

Compound: CC(=O)O[C@@H]1[C@@H]2[C@@H](OC(C)=O)[C@@]34O[C@@]2(C)COC(=O)c2cnccc2C(C)C(C)C(=O)O[C@@H]([C@H](OC(C)=O)[C@H](OC(C)=O)[C@@]3(COC(=O)c2ccco2)[C@@H]1OC(C)=O)[C@]4(C)O (some centres undefined) [HYPOGLAUNINE D]
- IC50 [1]: 22.2 µg/mL (≈ 25.9 µM)
- Activity [2]: inactive

Compound: CC(=O)OC[C@]12[C@H](OC(C)=O)[C@H](OC(C)=O)[C@@H]3[C@@H](OC(C)=O)[C@@]14O[C@@]3(C)COC(=O)c1cccnc1C(C)C(C)C(=O)O[C@@H]([C@H](OC(=O)c1ccccc1)[C@@H]2OC(C)=O)[C@@]4(C)O (some centres undefined) [FORRESTINE]
- IC50 [1]: > 100 µg/mL
- EC50 [2]: 0.48 µg/mL (≈ 0.553 µM)
- selectivity ratio [3]: > 208
